# Earlier results in article PMC3918212 (Biopolymers, 2013).
# Conditions: PBS at 37 °C
sequence,measurement,value
MATLEKLMKAFESLKSF [htt^NT],Aggregation behaviour on incubation,"slow, concentration dependent conversion into an α-helix rich, sedimentable oligomer"
